Laboratory results reported in US20230083012A1, “DIHYDROPYRIMIDINE DERIVATIVES AND USES THEREOF IN THE TREATMENT OF HBV INFECTION OR OF HBV-INDUCED DISEASES” (priority 2019, published 2023).
pEC50: −log10 of the molar value. Read-outs that look alike come from different tables or passages of the source.

Key:
HBV = experiment: Anti-HBV activity in HepG2.2.15 cells (HBV DNA in culture medium by qPCR); format: cell-based; conditions: HepG2.2.15 cells, 6 days treatment, HBV DNA in culture medium quantified by real-time PCR, read-out: EC50
Outline: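 HepG2.2.15 cells in 2% FBS medium at 37 °C were treated with compounds for 6 days, with medium and compound refreshed at day 3; 1:3 dilutions, 8 concentrations in triplicate, top 10 or 1 uM. HBV DNA in culture medium quantified by qPCR to derive EC50; CC50 from parallel plates (top 100 uM).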

[1] = Cytotoxicity determination in HepG2.2.15 cells (CCK-8 cell viability); format: cell-based; conditions: human, 6 days treatment, CCK-8 assay, highest concentration 100 uM
Outline: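 HepG2.2.15 cells seeded at 5,000 cells/well in 2% FBS medium, exposed 6 days to compounds (8-point 1:3 dilutions from 100 uM, triplicate), refreshed at day 3. Viability read by CCK-8 after 2.5 h at 37° C, absorbance 450 nm with 630 nm reference; CC50 calculated.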

[2] = Hepatitis B virus, HepG2.2.15, 144 h

Row | Compound | pEC50 (HBV; [2]) | CC50 at 6 days [1] [nM] | pEC50 (HBV)
1 | CCOC(=O)C1=C(CN2CC(F)(F)[C@H]3[C@@H]2CCN3[C@H]2CC[C@@H](C(=O)O)CC2)NC(c2nccs2)=N[C@H]1c1cccc(F)c1C (single isomer, unassigned) [Compound 104A] | 7.98 | 16100 | –
2 | CCOC(=O)C1=C(CN2CC(F)(F)[C@H]3[C@@H]2CCN3C2CCC(C(=O)O)CC2)NC(c2nccs2)=N[C@H]1c1cccc(F)c1C (single isomer, unassigned) [Compound 104B] | 8.10 | > 6200 | –
3 | CCOC(=O)C1=C(CN2CC(F)(F)[C@H]3[C@@H]2CCN3[C@H](C)CC(C)(C)C(=O)O)NC(c2nccs2)=N[C@H]1c1cccc(F)c1C (single isomer, unassigned) [Compound 105A] | 7.98 | 15200 | –
4 | CCOC(=O)C1=C(CN2CC(F)(F)[C@H]3[C@@H]2CCN3[C@@H](C)CC(C)(C)C(=O)O)NC(c2nccs2)=N[C@H]1c1cccc(F)c1C (single isomer, unassigned) [Compound 105B] | 6.97 | 94300 | –
5 | CCOC(=O)C1=C(CN2CC(F)(F)[C@H]3[C@@H]2CCN3CC(C)(C)C(=O)O)NC(c2nccs2)=N[C@@H]1c1cccc(O)c1C (single isomer, unassigned) [Compound 106, (cis)-3-(4-((5-(ethoxycarbonyl)-6-(3-hydroxy-2-methylphenyl)-2-(thiazol-2-yl)-3,6-dihydropyrimidin-4-yl)methyl)-6,6-difluorohexahydropyrrolo[3,2-b]pyrrol-1(2H)-yl)-2,2-dimethylpropanoic acid] | 7.70 | 39500 | –
6 | CCOC(=O)C1=C(CN2CC(F)(F)[C@H]3[C@@H]2CCN3CCC(C)(C)c2nnn[nH]2)NC(c2nccs2)=N[C@H]1c1cccc(F)c1C (single isomer, unassigned) [Compound 108] | 9.40 | 13100 | –
7 | CCOC(=O)C1=C(CN2CC(F)(F)[C@H]3[C@@H]2CCN3CC(C)(C)C(=O)NS(C)(=O)=O)NC(c2nccs2)=N[C@H]1c1cccc(F)c1C (single isomer, unassigned) [Compound 109] | > 9.00 | 7300 | –
8 | CCOC(=O)C1=C(CN2CC(F)(F)[C@H]3[C@@H]2CCN3CCOC(C)(C)C(=O)O)NC(c2nccs2)=N[C@H]1c1cccc(F)c1C (single isomer, unassigned) [Compound 111] | 8.11 | 33400 | –
9 | CCOC(=O)C1=C(CN2CC(F)(F)C3[C@@H]2CCN3[C@H]2C[C@](C)(C(=O)O)C2)NC(c2nccs2)=N[C@H]1c1cccc(F)c1C (single isomer, unassigned) [Compound 112A] | 8.34 | 28700 | –
10 | CCOC(=O)C1=C(CN2CC(F)(F)C3[C@@H]2CCN3[C@H]2C[C@@](C)(C(=O)O)C2)NC(c2nccs2)=N[C@H]1c1cccc(F)c1C (single isomer, unassigned) [Compound 112B] | 8.33 | 23600 | –
11 | CCOC(=O)C1=C(CN2CC(F)(F)C3[C@@H]2CCN3C2CC(C)(C(=O)O)C2)NC(c2nccs2)=N[C@H]1c1cccc(F)c1C (single isomer, unassigned) [Compound 112] | 8.28 | 28600 | –
12 | [H][C@]1(N2CC[C@H]3[C@@H]2C(F)(F)CN3CC2=C(C(=O)OCC)[C@H](c3cccc(F)c3C)N=C(c3nccs3)N2)C[C@@]2(C[C@@H](C(=O)O)C2)C1 (single isomer, unassigned) [Compound 113A] | 8.30 | > 3000 | –
13 | [H][C@]1(C(=O)O)C[C@@]2(C1)C[C@@]([H])(N1CC[C@H]3[C@@H]1C(F)(F)CN3CC1=C(C(=O)OCC)[C@H](c3cccc(F)c3C)N=C(c3nccs3)N1)C2 (single isomer, unassigned) [Compound 113B] | > 9.00 | > 3100 | –
14 | CCOC(=O)C1=C(CN2CC(F)(F)[C@H]3[C@@H]2CCN3C2CC3(CC(C(=O)O)C3)C2)NC(c2nccs2)=N[C@H]1c1cccc(F)c1C (single isomer, unassigned) [Compound 113] | 8.66 | 12500 | –
15 | CCOC(=O)C1=C(CN2CC(F)(F)[C@H]3[C@@H]2CCN3C2CCC(C(=O)O)C2)NC(c2nccs2)=N[C@H]1c1cccc(F)c1C (single isomer, unassigned) [Compound 115] | 8.51 | 24000 | –
16 | CCOC(=O)C1=C(CN2CC(F)(F)[C@H]3[C@@H]2CCN3C[C@H]2C[C@@](C)(C(=O)O)C2)NC(c2nccs2)=N[C@H]1c1cccc(F)c1C (single isomer, unassigned) [Compound 116A] | 9.10 | 12100 | –

Row | Compound | pEC50 (HBV; [2]) | CC50 at 6 days [1] [nM] | pEC50 (HBV)
17 | CCOC(=O)C1=C(CN2CC(F)(F)[C@H]3[C@@H]2CCN3C[C@H]2C[C@](C)(C(=O)O)C2)NC(c2nccs2)=N[C@H]1c1cccc(F)c1C (single isomer, unassigned) [Compound 116B] | 8.60 | 10600 | –
18 | CCOC(=O)C1=C(CN2CC(F)(F)[C@H]3[C@@H]2CCN3CCC2(C(=O)O)CC2)NC(c2nccs2)=N[C@H]1c1cccc(F)c1C (single isomer, unassigned) [Compound 117] | > 9.30 | 24700 | –
19 | CCOC(=O)C1=C(CN2CC(F)(F)[C@H]3[C@@H]2CCN3CCC(C)(C)C(=O)O)NC(c2nc(C)cs2)=N[C@H]1c1cccc(F)c1C (single isomer, unassigned) [Compound 118] | 8.27 | 12700 | –
20 | CCOC(=O)C1=C(CN2C[C@H](F)[C@H]3[C@@H]2CCN3CCC(C)(C)C(=O)O)NC(c2nccs2)=N[C@H]1c1cccc(F)c1C (single isomer, unassigned) [Compound 119] | 7.26 | 20200 | –
21 | [H][C@]1(N2CC[C@H]3[C@@H]2C(F)(F)CN3CC2=C(C(=O)OC)[C@H](c3cccc(F)c3F)N=C(c3nccs3)N2)C[C@@]2(C[C@@H](C(=O)O)C2)C1 (single isomer, unassigned) [Compound 120A] | 7.92 | 28100 | –
22 | [H][C@]1(N2CC[C@H]3[C@@H]2C(F)(F)CN3CC2=C(C(=O)OC)[C@H](c3cccc(F)c3F)N=C(c3nccs3)N2)C[C@]2(C[C@@H](C(=O)O)C2)C1 (single isomer, unassigned) [Compound 120B] | – | 19900 | 7.89
23 | CCOC(=O)C1=C(CN2CC(F)(F)[C@H]3[C@@H]2CCN3C[C@@H](CC)C(=O)O)NC(c2nccs2)=N[C@@H]1c1ccc(F)nc1C (single isomer, unassigned) [Compound 122A, 2-(((cis)-4-((5-(ethoxycarbonyl)-6-(6-fluoro-2-methylpyridin-3-yl)-2-(thiazol-2-yl)-3,6-dihydropyrimidin-4-yl)methyl)-6,6-difluorohexahydropyrrolo[3,2-b]pyrrol-1(2H)-yl)methyl)butanoic acid] | 8.22 | > 100000 | –
24 | CCOC(=O)C1=C(CN2CC(F)(F)[C@H]3[C@@H]2CCN3[C@H]2C[C@@H](CC(=O)O)C2)NC(c2nccs2)=N[C@H]1c1cccc(F)c1C (single isomer, unassigned) [Compound 123A] | 8.10 | 18600 | –
25 | CCOC(=O)C1=C(CN2CC(F)(F)[C@H]3[C@@H]2CCN3[C@H]2C[C@H](CC(=O)O)C2)NC(c2nccs2)=N[C@H]1c1cccc(F)c1C (single isomer, unassigned) [Compound 123B] | 8.05 | 16100 | –
26 | CCOC(=O)C1=C(CN2CC(F)(F)[C@H]3[C@@H]2CCN3c2nc(C(=O)O)cs2)NC(c2nccs2)=N[C@H]1c1cccc(F)c1C (single isomer, unassigned) [Compound 124] | 7.62 | 7700 | –
27 | COC(=O)C1=C(CN2CC(F)(F)[C@H]3[C@@H]2CCN3CCC(C)(C)C(=O)O)NC(c2ncoc2C)=N[C@H]1c1ccc(F)cc1Cl (single isomer, unassigned) [Compound 125, 4-((cis)-4-((6-(2-chloro-4-fluorophenyl)-5-(methoxycarbonyl)-2-(5-methyloxazol-4-yl)-3,6-dihydropyrimidin-4-yl)methyl)-6,6-difluorohexahydropyrrolo[3,2-b]pyrrol-1(2H)-yl)-2,2-dimethylbutanoic acid] | 8.03 | 58400 | –
28 | COC(=O)C1=C(CN2CC(F)(F)[C@H]3[C@@H]2CCN3CCC(C)(C)C(=O)O)NC(c2nccs2)=N[C@H]1c1ccc(F)c(F)c1Cl (single isomer, unassigned) [Compound 126] | 8.47 | 27200 | –
29 | COC(=O)C1=C(CN2CC(F)(F)[C@H]3[C@@H]2CCN3CCC(C)(C)C(=O)O)NC(c2nccs2)=N[C@H]1c1ccc(F)cc1Cl (single isomer, unassigned) [Compound 127, 4-((cis)-4-((6-(2-Chloro-4-fluorophenyl)-5-(methoxycarbonyl)-2-(thiazol-2-yl)-3,6-dihydropyrimidin-4-yl)methyl)-6,6-difluorohexahydropyrrolo[3,2-b]pyrrol-1(2H)-yl)-2,2-dimethylbutanoic acid] | 8.80 | 47200 | –
30 | COC(=O)C1=C(CN2CC(F)(F)[C@H]3[C@@H]2CCN3CCC(C)(C)C(=O)O)NC(c2nccs2)=N[C@H]1c1cccc(F)c1Cl (single isomer, unassigned) [Compound 128, 4-((cis)-4-((6-(2-Chloro-3-fluorophenyl)-5-(methoxycarbonyl)-2-(thiazol-2-yl)-3,6-dihydropyrimidin-4-yl)methyl)-6,6-difluorohexahydropyrrolo[3,2-b]pyrrol-1(2H)-yl)-2,2-dimethylbutanoic acid] | 9.10 | 40100 | –
31 | CCOC(=O)C1=C(CN2CC(F)(F)[C@H]3[C@@H]2CCN3CC[C@H]2C[C@@H](C(=O)O)C2)NC(c2nccs2)=N[C@H]1c1cccc(F)c1C (single isomer, unassigned) [Compound 129A] | 8.11 | 10300 | –
